What all share (format): functional
Experiment [1] concerns Escherichia coli. Nature of the experiment: Antimicrobial activity against AmpC producing Escherichia coli Top10 isolate 7014517.
In experiment [2] the test system is Escherichia coli. Nature of the experiment: Antimicrobial activity against Escherichia coli isolate 7008211 with AmpC beta-lactamase H296P mutation.
The test system of experiment [3] is Escherichia coli. Nature of the experiment: Antimicrobial activity against Escherichia coli isolate 7008153 with AmpC beta-lactamase H296P mutation.
Experiment [4] has as its system Escherichia coli. Nature of the experiment: Antimicrobial activity against Escherichia coli isolate 7001178 with AmpC beta-lactamase S287N mutation.
Experiment [5] deals with Escherichia coli. The experiment can be described thus: Antimicrobial activity against Escherichia coli isolate 4009273 with AmpC beta-lactamase S287N mutation.
The test system of experiment [6] is Escherichia coli. The experiment can be described thus: Antimicrobial activity against Escherichia coli isolate 5000869 with AmpC beta-lactamase H296P mutation.
For experiment [7], the system named is Escherichia coli. Nature of the experiment: Antimicrobial activity against Escherichia coli isolate 7008710 with AmpC beta-lactamase S287N mutation.
Experiment [8] deals with Escherichia coli. Nature of the experiment: Antimicrobial activity against Escherichia coli isolate 7010738 with AmpC beta-lactamase H296P mutation.
Experiment [9] has as its system Escherichia coli. The experiment can be described thus: Antimicrobial activity against Escherichia coli isolate 7014517 with AmpC beta-lactamase 295 Ins LAA mutation.
Experiment [10] concerns Escherichia coli. Nature of the experiment: Antimicrobial activity against Escherichia coli isolate 8009162 with AmpC beta-lactamase A292V mutation.
Experiment [11] has as its system Escherichia coli. The experiment can be described thus: Antimicrobial activity against Escherichia coli isolate 8009389 with AmpC beta-lactamase H296P mutation.
Experiment [12] concerns Escherichia coli. The experiment can be described thus: Antimicrobial activity against Escherichia coli isolate 8009989 with AmpC beta-lactamase H296P mutation.
Experiment [13] concerns Escherichia coli. The experiment can be described thus: Antimicrobial activity against Escherichia coli isolate 7014517 AmpC with LAA insertion at position 295.
Experiment [14] concerns Escherichia coli. The experiment can be described thus: Antimicrobial activity against Escherichia coli isolate 8009162 AmpC with A292V mutation.
Experiment [15] deals with Escherichia coli. Nature of the experiment: Antimicrobial activity against AmpC producing Escherichia coli Top10 isolate 8009162.
For experiment [16], the system named is Escherichia coli. Nature of the experiment: Antimicrobial activity against wild-type AmpC producing Escherichia coli ATCC 25922.
In experiment [17] the test system is Escherichia coli. Nature of the experiment: Antimicrobial activity against AmpC producing Escherichia coli Top10 isolate 25922.
Experiment [18] relates to Escherichia coli. The experiment can be described thus: Antimicrobial activity against Escherichia coli Top10.

≈ marks a conversion by molar mass, not a printed value. Where only a bound is given, the exact number is not on record here.

For `CO/N=C(\C(=O)N[C@@H]1C(=O)N2C(C(=O)[O-])=C(C[N+]3(C)CCCC3)CS[C@H]12)c1csc(N)n1` [CEFEPIME], the MIC (as a rule, the lowest concentration that inhibits growth of the organism) in experiment [1] came out at 4 µg/mL (≈ 8.32 µM); in [2] it was 16 µg/mL (≈ 33.3 µM); in experiment [3], 16 µg/mL (≈ 33.3 µM); in [4], 2 µg/mL (≈ 4.16 µM); in experiment [5], 4 µg/mL (≈ 8.32 µM); in experiment [6], 4 µg/mL (≈ 8.32 µM). Besides, the MIC in [7] was determined as 8 µg/mL (≈ 16.6 µM); in [8], 8 µg/mL (≈ 16.6 µM); in [9] it was 8 µg/mL (≈ 16.6 µM); in [10], 0.75 µg/mL (≈ 1.56 µM); in [11], 16 µg/mL (≈ 33.3 µM); in [12], 8 µg/mL (≈ 16.6 µM). In addition, the MIC in experiment [13] was 8 µg/mL (≈ 16.6 µM); in experiment [14], 0.75 µg/mL (≈ 1.56 µM); in [15], 0.75 µg/mL (≈ 1.56 µM); in experiment [16] it was less than 0.06 µg/mL; in [17], 0.06 µg/mL (≈ 0.125 µM); in [18] it was less than 0.06 µg/mL.
On to `CO/N=C(\C(=O)N[C@@H]1C(=O)N2C(C(=O)O)=C(COC(C)=O)CS[C@H]12)c1csc(N)n1` [CEFOTAXIME], for which the MIC amounted to 32 µg/mL (≈ 70.3 µM) in [1]; 8 µg/mL (≈ 17.6 µM) in experiment [2]; 16 µg/mL (≈ 35.1 µM) in experiment [3]; 8 µg/mL (≈ 17.6 µM) in experiment [4]; 8 µg/mL (≈ 17.6 µM) in experiment [5]; 4 µg/mL (≈ 8.78 µM) in [6]. Besides, the MIC in [7] came out at 16 µg/mL (≈ 35.1 µM); in experiment [8] it was 8 µg/mL (≈ 17.6 µM); in experiment [9], 16 µg/mL (≈ 35.1 µM); in [10] it was 8 µg/mL (≈ 17.6 µM); in [11] it was 8 µg/mL (≈ 17.6 µM); in experiment [12] it was 8 µg/mL (≈ 17.6 µM). For the same molecule, the MIC is 16 µg/mL (≈ 35.1 µM) in experiment [13]; 8 µg/mL (≈ 17.6 µM) in [14]; 12 µg/mL (≈ 26.3 µM) in experiment [15]; less than 0.06 µg/mL in experiment [16]; 0.75 µg/mL (≈ 1.65 µM) in experiment [17]; less than 0.06 µg/mL in experiment [18].
As for `CC(C)(O/N=C(\C(=O)N[C@@H]1C(=O)N2C(C(=O)[O-])=C(C[n+]3ccccc3)CS[C@H]12)c1csc(N)n1)C(=O)O` [CEFTAZIDIME], the MIC in experiment [1] is more than 256 µg/mL; in experiment [2], not below 64 µg/mL; in experiment [3], not below 64 µg/mL; in [4], not below 64 µg/mL; in experiment [5], not below 64 µg/mL; in experiment [6], not below 64 µg/mL. The MIC in experiment [7], in experiment [8], in experiment [9], in [10], in [11] and in experiment [12] was not below 64 µg/mL each time. Also, the MIC in [13] is 64 µg/mL (≈ 117 µM); in experiment [14], 64 µg/mL (≈ 117 µM); in experiment [15] it was more than 256 µg/mL; in [16], 0.09 µg/mL (≈ 0.165 µM); in experiment [17], 4 µg/mL (≈ 7.32 µM); in experiment [18] it was less than 0.06 µg/mL.
